No end group written: not given here.
Experiments:
[1] = tested on: T. brucei MERS1 (residues 37–395); assay: Fluorescence polarization (FP) RNA/DNA binding to MERS1; parameters: species or system Trypanosoma brucei; settings: 25 mM Tris HCl pH 7.5, 5% (v/v) glycerol, 50 mM NaCl; for Binding to MERS1, result in words: 25°C, 1 nM fluoresceinated RNA or DNA
Text: We next used FP binding studies to assess RNA binding by purified MERS1. […] We next probed the importance of specific nucleotides in the RNA binding site by performing FP studies on mutant forms of the RNA site.
For structural studies, the nucleotides encoding residues 37–395 of MERS1 were cloned into pET15b between the BamHI and NdeI restriction sites. E. coli C41(DE3) cells were transformed with the expression plasmid and protein expression was induced by addition of isopropyl β-D-1-thiogalactopyranoside (IPTG) to a final concentration of 0.5 mM for 4 h at 37°C when the cells had reached an A600 of 0.4–0.6. The cells were reconstituted in 25 mM Tris HCl pH 7.5, 300 mM NaCl, 5% glycerol, 0.5 mM β-mercaptoethanol and lysed with a microfluidizer. The expressed MERS1 protein was found in the soluble fraction and was purified using nickel-nitrilotriacetic acid (Ni-NTA) column chromatography. The protein was further purified by Superdex 75 size exclusion column (SEC) chromatography. MERS1 mutants were made using the Quikchange mutagenesis protocol and expressed and purified as per the WT protein.
FP experiments were performed using a PanVera Beacon 2000 FP system at 25°C ([Lundblad et al. 1996]). For the experiments, purified proteins were titrated into 0.990 mL buffer composed of 25 mM Tris HCl pH 7.5, 5% (v/v) glycerol and 50 mM NaCl and containing 1 nM (final concentration) fluoresceintly labeled RNA substrate, 5′-GAGAGGGGGUU-3′, or DNA, 5′-GTGAGTACTCAC-3′. Data were fit using KaleidaGraph. Each binding curve is a representative curve from two to three technical replicates. Mutant RNA sites tested were 5′-AAGAGGGGGUU-3′ (Supplemental Fig. S2), 5′-GGGAGGGGGUU-3′, 5′-GAAAGGGGGUU-3′, 5′-GAGGGGGGGUU-3′, 5′-GAGAAGGGGUU-3′, 5-GAGAGAGGGUU-3′, 5′-GAGAGGAGGUU-3′ and 5′-GAGAGGGAGUU-3′.

[2] = tested on: T. brucei MERS1 (residues 37–395); assay: FP peptide binding to MERS1; parameters: species or system Trypanosoma brucei; settings: 25 mM Tris HCl pH 7.5, 5% (v/v) glycerol, 150 mM NaCl, 1 nM fluoresceinated peptide (Fig. 4B)
Text: We considered that the bound helix provided from crystal packing might mimic a portion of MERS2 or MERS3 that interacts with MERS1. Thus, using the MERS1-peptide contacts we derived a consensus MERS1-peptide interacting motif, (M/L)XXALXXEL and probed the MERS2 and MERS3 sequences for similar motifs. While no homology was found between the sequence and that of MERS3, one strong match for the motif was located within the central PPR motif region of MERS2 (residues 394–402). This region is predicted to be helical and contain a PPR motif in MERS2. Attempts to purify MERS2 or a MERS2 truncation containing this PPR motif for binding analyses, however, were unsuccessful. Thus, we obtained a fluoresceinated peptide encompassing this MERS2 region, F-[…] (where underlined residues correspond to the peptide consensus residues) and utilized this peptide in FP binding studies. […] However, to test whether helical residues observed in the crystal to make contact to MERS1 are involved in binding, we obtained a fluoresceintated peptide in which the first leucine and the glutamic acid in the helix were substituted to prolines (F-[…]).
For structural studies, the nucleotides encoding residues 37–395 of MERS1 were cloned into pET15b between the BamHI and NdeI restriction sites. […]

[3] = molecular target: T1, T. brucei MERS1(37–395), his-tagged (Trypanosoma brucei brucei TREU927, UniProt B6SBM0 37-395); assay: fluorescence polarisation; purified MERS1 titrated into 1 nM fluoresceinated peptide; 25 mM Tris HCl pH 7.5, 5% (v/v) glycerol, 150 mM NaCl; settings: both partners purified
T1 construct: MERS1, Trypanosoma brucei, 395 residues; A selenomethionine-substituted form was used for phasing of the GTP crystal; also called mitochondrial edited mRNA stability factor 1; WT MERS1; source: E. coli C41(DE3), pET15b, purified (Ni-NTA, Superdex 75 SEC); not shown: His tag, N-terminal, kept
T1 sequence: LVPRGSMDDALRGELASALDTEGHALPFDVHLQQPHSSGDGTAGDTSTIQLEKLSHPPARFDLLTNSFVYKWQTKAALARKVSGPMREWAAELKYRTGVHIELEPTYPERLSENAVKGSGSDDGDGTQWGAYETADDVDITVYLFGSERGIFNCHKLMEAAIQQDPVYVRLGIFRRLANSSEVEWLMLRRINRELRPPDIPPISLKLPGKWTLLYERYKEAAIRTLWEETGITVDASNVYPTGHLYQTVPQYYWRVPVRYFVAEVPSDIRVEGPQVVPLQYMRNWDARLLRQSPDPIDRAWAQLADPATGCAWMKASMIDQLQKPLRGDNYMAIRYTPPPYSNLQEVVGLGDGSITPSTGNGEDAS

MERS1 [4] = molecular target: T2, MERS1 (Trypanosoma brucei brucei TREU927, UniProt B6SBM0 37-395); assay: fluorescence polarization; FP: 25 mM Tris HCl pH 7.5, 50 mM NaCl, 5% (v/v) glycerol, 1 nM labeled RNA or DNA, 25 C; settings: protein: recombinant, tags: N-terminal His tag (pET15b, linker LVPRGSM); for Kd: single-stranded
T2 sequence: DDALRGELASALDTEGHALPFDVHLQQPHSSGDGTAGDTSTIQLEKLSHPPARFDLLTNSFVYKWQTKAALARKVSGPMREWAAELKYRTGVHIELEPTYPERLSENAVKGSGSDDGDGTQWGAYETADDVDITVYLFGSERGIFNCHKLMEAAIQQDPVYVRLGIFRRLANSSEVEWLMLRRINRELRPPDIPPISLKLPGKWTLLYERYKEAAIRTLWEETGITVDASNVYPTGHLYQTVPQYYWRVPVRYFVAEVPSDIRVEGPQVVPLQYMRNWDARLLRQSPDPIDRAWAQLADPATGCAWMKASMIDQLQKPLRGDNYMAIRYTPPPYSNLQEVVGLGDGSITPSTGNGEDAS

MERS1 [5] = molecular target: T2, MERS1; assay: X-ray crystallography; 2.60 A; four nucleotides resolved per subunit; FP: 25 mM Tris HCl pH 7.5, 50 mM NaCl, 5% (v/v) glycerol, 1 nM labeled RNA or DNA, 25 C; settings: protein: recombinant; tags: N-terminal His tag (pET15b, linker LVPRGSM); single-stranded
MERS1 [6] = molecular target: T2, MERS1; assay: fluorescence polarization; Results text prints the 12-mer; Methods and Fig. 5 print this 11-mer; FP: 25 mM Tris HCl pH 7.5, 50 mM NaCl, 5% (v/v) glycerol, 1 nM labeled RNA or DNA, 25 C; settings: protein: recombinant; tags: N-terminal His tag (pET15b, linker LVPRGSM); single-stranded

## 5′-GAGAGGGGGUU-3′: fluoresceintly labeled RNA substrate (RNA, backbone not given here; fluorescein label)
[1]
  Binding to MERS1, result in words: binds MERS1 with high affinity

## 5′-GAGAGGAGGUU-3′ (RNA, backbone not given here)
[1]
  Binding to MERS1, result in words: did not bind saturably

## F-SVSKQAVCLMERHLRRVPGARRNELKVAPSKPLKER [peptide in which the first leucine and the glutamic acid in the helix were substituted to prolines]
[2]
  Peptide binding to MERS1, result in words: only weak binding

## F-MSNNALDRLINKQKPKVPPRNDVVSESVSN [another fluoresceinated peptide that lacked the consensus residues, reference compound]
[2]
  Peptide binding to MERS1, result in words: failed to interact

## 5′-GAGAGAGGGUU-3′ (RNA, backbone not given here)
[1]
  Binding to MERS1, result in words: did not bind saturably

## 5′-GAGAGGGGGGUU-3′: RNA binding site; also used for the MERS1–RNA crystal structure (RNA, backbone not given here)
[1]; PanVera Beacon 2000, 25°C, 1 nM fluoresceinated RNA, MERS1 titrated, ± standard error, representative of at least three technical replicates (Fig. 5B)
  Kd: 40 ± 0.9 nM

## 5′-GTGAGTACTCAC-3′: DNA site used as comparison in FP binding (DNA, backbone and methylation of C not given here; further chemistry not fully specified) [reference compound]
[1]
  Binding to MERS1, result in words: essentially no binding
[1]; listed as DNA
  Binding to MERS1, result in words: no binding

## 5′-GAGAGGGAGUU-3′ (RNA, backbone not given here)
[1]
  Binding to MERS1, result in words: did not bind saturably

B1: fluoresceinated MERS2 peptide F-SVSKQAVCLMERHLRRVPGARRNELKVALSKELKER (peptide)
peptide: fluorescein-SVSKQAVCLMERHLRRVPGARRNELKVALSKELKER
notes: MERS2, T. brucei, 946 residue pentatricopeptide repeat protein; limits worked out from that motif; also called MER2 peptide
[3]
  Kd: 2500 nM

## GGGAGGGGGUU (ssRNA) [RNA A2G]
MERS1 [4]; label: fluorescein
  Kd: 48 ± 0.9 nM

## GAGAGGGGGGUU (ssRNA) [RNA 12-mer (crystal)]
MERS1 [5]
  binding result: binds

## GAGGGGGGGUU (ssRNA) [RNA A4G]
MERS1 [4]; label: fluorescein
  Kd: 47 ± 5 nM

## AAGAGGGGGUU (ssRNA) [RNA G1A]
MERS1 [4]; label: 5' fluorescein
  Kd: 39 ± 4 nM

B2: DNA control (dsDNA)
DNA 1: GTGAGTACTCAC
DNA 2: GTGAGTACTCAC
MERS1 [4]; label: fluorescein, self-complementary 12-mer, blunt if duplex
  binding result: no binding

## GAGAAGGGGUU (ssRNA) [RNA G5A]
MERS1 [4]; label: fluorescein
  Kd: 43 ± 5 nM

## GAAAGGGGGUU (ssRNA) [RNA G3A]
MERS1 [4]; label: fluorescein
  Kd: 78 ± 4 nM

## GAGAGGGGGUU (ssRNA) [WT RNA site (11-mer, FP)]
MERS1 [6]
  Kd: 40 ± 0.9 nM
